The record followed here is PMC6240894 (2018).

Test [1] concerns 22AG (DNA, G4) AGGGTTAGGGTTAGGGTTAGGG
Put plainly: fluorescence and UV/Vis titration. As to conditions: K+ 100 mM; 10 mM Tris, pH 7.4, 25 °C; lower optical response.

The subject of test [2] is sG4 (DNA, G4) GGGTGGGTAGGGTGGG
Kind of test: UV/Vis and fluorescence titration, averaged. The settings on record: K+ 100 mM; 10 mM Tris, pH 7.4, 25 °C.

The test system of test [3] is VAV-1 (DNA, G4) GGGCAGGGAGGGAACTGGG
Kind of test: UV/Vis and fluorescence titration, averaged. The settings on record: K+ 100 mM; 10 mM Tris, pH 7.4, 25 °C.

Test [4] deals with c-myc (DNA, G4) TGAGGGTGGGTAGGGTGGGTAA
Kind of test: UV/Vis and fluorescence titration, averaged. The settings on record: K+ 100 mM; 10 mM Tris, pH 7.4, 25 °C.

The test system of test [5] is 25Ceb (DNA, G4) AGGGTGGGTGTAAGTGTGGGTGGGT
Kind of test: UV/Vis and fluorescence titration, averaged. The settings on record: K+ 100 mM; 10 mM Tris, pH 7.4, 25 °C.

Test [6] concerns Kras 22 (DNA, G4) AGGGCGGTGTGGGAATAGGGAA
Put plainly: UV/Vis and fluorescence titration, averaged. The settings on record: K+ 100 mM; 10 mM Tris, pH 7.4, 25 °C; site 1 of 2; K12 1.7 × 10^6; 1:2 fit of lower credibility.

The test system of test [7] is Kras 32 (DNA, G4) AGGGCGGTGTGGGAAGAGGGAAGAGGGGGAGG
Put plainly: UV/Vis and fluorescence titration, averaged. As to conditions: K+ 100 mM; 10 mM Tris, pH 7.4, 25 °C; site 1 of 2; K12 4.1 × 10^5; 1:2 fit of lower credibility.

`COCCOCCOCCOc1cc(CN2C(=CC3=C([O-])C(=Cc4sc5ccccc5[n+]4Cc4cc(OCCOCCOCCOC)c(OCCOCCOCCOC)c(OCCOCCOCCOC)c4)C3=C(C#N)C#N)Sc3ccccc32)cc(OCCOCCOCCOC)c1OCCOCCOCCOC`: the binding entry in test [1] was “weak”. For the same molecule, the K11 in test [2] worked out at 8.1e+06 M⁻¹; in test [3], 1.2e+07 M⁻¹; in test [4], 1e+07 M⁻¹; in test [5], 900000 M⁻¹; in test [6], 1.5e+07 M⁻¹; in test [7], 5.9e+06 M⁻¹.
